# Results from ChEMBL document CHEMBL4152326 (2018).
# Test system: Pseudomonas aeruginosa
# Assay: Antimicrobial activity against Pseudomonas aeruginosa SR24 in presence of human apo-transferrin by broth microdilution method
# Type: functional
row,SMILES,MIC [µg/mL]
1,Nc1nc(/C(=N/OCc2cccc(C(=O)O)c2)C(=O)N[C@@H]2C(=O)N3C(C(=O)[O-])=C(C[N+]4(CCNC(=O)c5ccc(O)c(O)c5Cl)CCCC4)CS[C@H]23)cs1,0.25
2,Nc1nc(/C(=N/O[C@H](C(=O)O)c2ccccc2)C(=O)N[C@@H]2C(=O)N3C(C(=O)[O-])=C(C[N+]4(CCNC(=O)c5ccc(O)c(O)c5Cl)CCCC4)CS[C@H]23)cs1,0.25

# Test system: Pseudomonas aeruginosa
# Assay: Antimicrobial activity against AmpC overproducing Pseudomonas aeruginosa SR24-12 in presence of human apo-transferrin by broth microdilution method
# Type: functional
row,SMILES,MIC [µg/mL]
1,Nc1nc(/C(=N/OCc2cccc(C(=O)O)c2)C(=O)N[C@@H]2C(=O)N3C(C(=O)[O-])=C(C[N+]4(CCNC(=O)c5ccc(O)c(O)c5Cl)CCCC4)CS[C@H]23)cs1,0.5
2,Nc1nc(/C(=N/O[C@H](C(=O)O)c2ccccc2)C(=O)N[C@@H]2C(=O)N3C(C(=O)[O-])=C(C[N+]4(CCNC(=O)c5ccc(O)c(O)c5Cl)CCCC4)CS[C@H]23)cs1,0.25

# Test system: Pseudomonas aeruginosa
# Assay: Antimicrobial activity against IMP-1 producing Pseudomonas aeruginosa SR27001 in presence of human apo-transferrin by broth microdilution method
# Type: functional
row,SMILES,MIC [µg/mL]
1,Nc1nc(/C(=N/OCc2cccc(C(=O)O)c2)C(=O)N[C@@H]2C(=O)N3C(C(=O)[O-])=C(C[N+]4(CCNC(=O)c5ccc(O)c(O)c5Cl)CCCC4)CS[C@H]23)cs1,1
2,Nc1nc(/C(=N/O[C@H](C(=O)O)c2ccccc2)C(=O)N[C@@H]2C(=O)N3C(C(=O)[O-])=C(C[N+]4(CCNC(=O)c5ccc(O)c(O)c5Cl)CCCC4)CS[C@H]23)cs1,0.5

# Test system: Pseudomonas aeruginosa
# Assay: Antimicrobial activity against VIM-2 producing Pseudomonas aeruginosa SBRKM-28 in presence of human apo-transferrin by broth microdilution method
# Type: functional
row,SMILES,MIC [µg/mL]
1,Nc1nc(/C(=N/OCc2cccc(C(=O)O)c2)C(=O)N[C@@H]2C(=O)N3C(C(=O)[O-])=C(C[N+]4(CCNC(=O)c5ccc(O)c(O)c5Cl)CCCC4)CS[C@H]23)cs1,0.125
2,Nc1nc(/C(=N/O[C@H](C(=O)O)c2ccccc2)C(=O)N[C@@H]2C(=O)N3C(C(=O)[O-])=C(C[N+]4(CCNC(=O)c5ccc(O)c(O)c5Cl)CCCC4)CS[C@H]23)cs1,0.125

# Test system: Pseudomonas aeruginosa
# Assay: Antimicrobial activity against IMP-1 producing Pseudomonas aeruginosa SR27060 in presence of human apo-transferrin by broth microdilution method
# Type: functional
row,SMILES,MIC [µg/mL]
1,Nc1nc(/C(=N/OCc2cccc(C(=O)O)c2)C(=O)N[C@@H]2C(=O)N3C(C(=O)[O-])=C(C[N+]4(CCNC(=O)c5ccc(O)c(O)c5Cl)CCCC4)CS[C@H]23)cs1,8
2,Nc1nc(/C(=N/O[C@H](C(=O)O)c2ccccc2)C(=O)N[C@@H]2C(=O)N3C(C(=O)[O-])=C(C[N+]4(CCNC(=O)c5ccc(O)c(O)c5Cl)CCCC4)CS[C@H]23)cs1,4

# Test system: Pseudomonas aeruginosa
# Assay: Antimicrobial activity against Pseudomonas aeruginosa 27060deltaR1 harboring deletion of R1 plasmid in presence of human apo-transferrin by broth microdilution method
# Type: functional
row,SMILES,MIC [µg/mL]
1,Nc1nc(/C(=N/OCc2cccc(C(=O)O)c2)C(=O)N[C@@H]2C(=O)N3C(C(=O)[O-])=C(C[N+]4(CCNC(=O)c5ccc(O)c(O)c5Cl)CCCC4)CS[C@H]23)cs1,2
2,Nc1nc(/C(=N/O[C@H](C(=O)O)c2ccccc2)C(=O)N[C@@H]2C(=O)N3C(C(=O)[O-])=C(C[N+]4(CCNC(=O)c5ccc(O)c(O)c5Cl)CCCC4)CS[C@H]23)cs1,0.5

# Test system: Stenotrophomonas maltophilia
# Assay: Antimicrobial activity against L-1 producing Stenotrophomonas maltophilia SR21970 in presence of human apo-transferrin by broth microdilution method
# Type: functional
row,SMILES,MIC [µg/mL]
1,Nc1nc(/C(=N/OCc2cccc(C(=O)O)c2)C(=O)N[C@@H]2C(=O)N3C(C(=O)[O-])=C(C[N+]4(CCNC(=O)c5ccc(O)c(O)c5Cl)CCCC4)CS[C@H]23)cs1,2
2,Nc1nc(/C(=N/O[C@H](C(=O)O)c2ccccc2)C(=O)N[C@@H]2C(=O)N3C(C(=O)[O-])=C(C[N+]4(CCNC(=O)c5ccc(O)c(O)c5Cl)CCCC4)CS[C@H]23)cs1,0.25

# Test system: Acinetobacter baumannii
# Assay: Antimicrobial activity against OXA-23/OXA-58 producing Acinetobacter baumannii SR27323 in presence of human apo-transferrin by broth microdilution method
# Type: functional
row,SMILES,MIC [µg/mL]
1,Nc1nc(/C(=N/OCc2cccc(C(=O)O)c2)C(=O)N[C@@H]2C(=O)N3C(C(=O)[O-])=C(C[N+]4(CCNC(=O)c5ccc(O)c(O)c5Cl)CCCC4)CS[C@H]23)cs1,0.5
2,Nc1nc(/C(=N/O[C@H](C(=O)O)c2ccccc2)C(=O)N[C@@H]2C(=O)N3C(C(=O)[O-])=C(C[N+]4(CCNC(=O)c5ccc(O)c(O)c5Cl)CCCC4)CS[C@H]23)cs1,0.25

# Test system: Klebsiella pneumoniae
# Assay: Antimicrobial activity against KPC-2 producing Klebsiella pneumoniae ATCC BAA-1705 in presence of human apo-transferrin by broth microdilution method
# Type: functional
row,SMILES,MIC [µg/mL]
1,Nc1nc(/C(=N/OCc2cccc(C(=O)O)c2)C(=O)N[C@@H]2C(=O)N3C(C(=O)[O-])=C(C[N+]4(CCNC(=O)c5ccc(O)c(O)c5Cl)CCCC4)CS[C@H]23)cs1,2
2,Nc1nc(/C(=N/O[C@H](C(=O)O)c2ccccc2)C(=O)N[C@@H]2C(=O)N3C(C(=O)[O-])=C(C[N+]4(CCNC(=O)c5ccc(O)c(O)c5Cl)CCCC4)CS[C@H]23)cs1,0.031

# Test system: Escherichia coli
# Assay: Antimicrobial activity against SHV-4 producing Escherichia coli ATCC BAA-200 in presence of human apo-transferrin by broth microdilution method
# Type: functional
row,SMILES,MIC [µg/mL]
1,Nc1nc(/C(=N/OCc2cccc(C(=O)O)c2)C(=O)N[C@@H]2C(=O)N3C(C(=O)[O-])=C(C[N+]4(CCNC(=O)c5ccc(O)c(O)c5Cl)CCCC4)CS[C@H]23)cs1,16
2,Nc1nc(/C(=N/O[C@H](C(=O)O)c2ccccc2)C(=O)N[C@@H]2C(=O)N3C(C(=O)[O-])=C(C[N+]4(CCNC(=O)c5ccc(O)c(O)c5Cl)CCCC4)CS[C@H]23)cs1,0.5
